Data taken from US20180117000A1, “ENERGY METABOLIC ACTIVATING AGENT FOR MUSCLE CELLS” (ORYZA OIL & FAT CHEMICAL CO., LTD., priority 2015, published 2018).
“Also recorded” adds a separate entry of the source.

Key:
[1] = test system: PGC-1α; assay: Evaluation of the PGC-1α-expression promoting effect: PGC-1α mRNA by RT-PCR in C2C12; assay type: cell-based, Mouse; conditions: Compounds at 1 μM or 10 μM, C2C12 myoblast cells, cultured one week, GAPDH endogenous control, vs DMSO control, FIG. 3
Protocol: Mouse-muscle myoblast-cell lines C2C12 (cultured in DMEM FCS10%) were seeded in 24 well plates for determining the mRNA expression (1×10^4 cells/ml) and then were cultured for 24 hours. After 24 hours, the black-ginger extract (10 μg/mL) or the separated fractions (Compounds 1-8) were added to the culture media (DMEM FCS 1%) for differentiation induction until the concentration became 1 μM or 10 μM (i.e. until the concentration of the sample dissolved in each DMSO (dimethyl sulfoxide) became 0.1% (v/v) regarding the culture media). Then, the black-ginger extract and the separated fractions were cultured for one week. For control, the DMSO was added to the culture media in concentration of 0.1% (v/v). After being cultured for one week, the cells were collected, and the RNA was extracted. Regarding the collected RNA, by using RT-PCR (reverse-transcription polymerase-chain reaction), the expressed mRNA amount of the PGC-1α was identified. At that time, as an endogenous-control, GAPDH (Glyceraldehyde 3-phosphate dehydrogenase) was used.

[2] = test system: sugar transporter (GLUT4); assay: Evaluation of sugar-transporter (GLUT4) gene-expression promotion: GLUT4 mRNA by RT-PCR in C2C12; assay type: cell-based, Mouse; conditions: Compounds at 1 μM or 10 μM, C2C12 myoblast cells, cultured one week, GAPDH endogenous control, vs DMSO control, FIG. 2
Protocol: Mouse-muscle myoblast-cell lines C2C12 (cultured in DMEM FCS10%) were seeded in 24 well plates for determining the mRNA expression (1×10^4 cells/ml) and then were cultured for 24 hours. […] Then, the black-ginger extract and the separated fractions were cultured for one week. For control, the DMSO was added to the culture media in concentration of 0.1% (v/v). After being cultured for one week, the cells were collected, and the RNA was extracted. Regarding the collected RNA, by using RT-PCR (reverse-transcription polymerase chain-reaction), the expressed mRNA amount of the sugar transporter (GLUT4) was identified. At that time, as an endogenous-control, GAPDH (Glyceraldehyde 3-phosphate dehydrogenase) was used.

Compound: COc1cc(O)c2c(=O)cc(-c3ccccc3)oc2c1 [Compound 2, Techtochrysin]
- mRNA expression of the PGC-1α [1]: Significant increases; also recorded: stronger activity
- mRNA expression of the sugar transporter (GLUT4) [2]: Significant expressed-promotion increases

Compound: COc1ccc(-c2oc3cc(OC)cc(O)c3c(=O)c2OC)cc1 [Compound 3, 3,7,4′-Trimethylkaempferol]
- mRNA expression of the sugar transporter (GLUT4) [2]: Significant expressed-promotion increases

Compound: COc1cc(O)c2c(=O)c(OC)c(-c3ccc(OC)c(OC)c3)oc2c1 [Compound 4, retusine]
- mRNA expression of the PGC-1α [1]: lower activity

Compound: COc1cc(OC)c2c(=O)cc(-c3ccccc3)oc2c1 [Compound 8, 5,7-dimethoxyflavone]
- mRNA expression of the PGC-1α [1]: Significant increases; also recorded: stronger activity
- mRNA expression of the sugar transporter (GLUT4) [2]: Significant expressed-promotion increases
